`CNC(=O)c1cc(O)cc2c1N(C)C1N(C)CCC21C` (centres undefined) displayed a melting point of 202 to 204 °C.

`CCCO[C@@H](C)C(=O)Oc1ccc(-c2ccc(C(=O)O)cc2)cc1` displayed a melting point of 155 °C.

Turning to `Cn1ncc(C(=O)N2CCC2)c1C(=O)Nc1ccn2nc(N3CCOCC3)nc2c1`, the melting point was 232 to 234 °C.

Take `O=C1c2ccc(O)cc2OCC1Cc1cccnc1` (centres undefined): the melting point lay in the range of 181 to 190 °C.

Turning to `O=c1cc(CCN2CCC(c3c[nH]c4ccccc34)CC2)c2ccccc2[nH]1`, the melting point lay within 259 to 260 °C.

Turning to `CNC(=S)[C@]1(c2cccnc2)CCCC[C@H]1NOCc1c(F)c(F)c(F)c(F)c1F`, the melting point was in the range of 57 to 60 °C.

Molecule `NC(=O)Nc1cccc2c1C(=O)c1c-2n[nH]c1-c1cccs1` gave a melting point of 214 °C.

Molecule `C=CC1CCC2C3CCC4=CC(=O)CCC4(C)C3CCC12C` (centres undefined) came in with a melting point of 122 to 124 °C.

In the case of `CCCOc1ccccc1-c1nc2nc(NCC(=O)OCC)ncc2c(=O)[nH]1`, the melting point lay in the range of 174 to 176 °C.

Molecule `Cc1cc(CCCCCOc2c(Cl)cc(C3=NCCO3)cc2Cl)on1` displayed a melting point of 42 to 43 °C.

`CC(=O)N(C)N(C(=O)OC(C)(C)C)c1ccc(CO)cc1` displayed a melting point of 122 to 123 °C.

Turning to `CC(C)(O)c1ccc(CNC(=O)c2cccnc2Oc2cccc(F)c2)cc1`, the melting point is 106 to 108 °C.

In turn, `CCC(=O)Oc1ccc(-c2nc(-c3ccc(N(C)C)cc3)c(C)[nH]2)cc1OC` came in with a melting point of 244 to 246 °C.

For `CN1CCCC(c2cc3ccccc3c(=O)[nH]2)C1` (centres undefined), the melting point was in the range of 155 to 156 °C.

Consider `N#Cc1ncn2c(C(F)(F)F)cc(-c3ccncc3)nc12`, for which the melting point is 254 °C.

The molecule `CC1(C)C2CC1C(=O)CC2=O` came in with a melting point of 80 to 81 °C.

For the molecule `CC(C)OC(=O)c1nc(-c2ccc(=O)[nH]c2)c(-c2ccccc2)nc1N`, the melting point was in the range of 250 to 256 °C.

Consider `Cc1ccc(NC(=O)c2cccc(C(F)(F)F)c2)cc1-c1ccc2scnc2c1`, for which the melting point was in the range of 90 to 93 °C.

The molecule `COc1cccc2c1CC(C(=O)NCCOc1ccc(C(=O)OC(C)(C)C)cc1)N2S(=O)(=O)c1ccc(-c2ccc(F)cc2Cl)cc1` (centres undefined) gave a melting point of 79 to 85 °C.

In turn, `COC(=O)Cc1cn(-c2ccccc2)nc1O` gave a melting point of 144 to 145 °C.

The molecule `Cc1cc(-c2ccc(Cl)cc2)nc(-c2cccc(-c3ccc(S(N)(=O)=O)s3)c2)n1` registered a melting point of 227 °C.

With `CC(=O)N[C@@H](CO)C(=O)NCCO[N+](=O)[O-]`, the melting point lay within 91 to 93 °C.

`Cn1cncc1C(O)(c1ccc(Cl)cc1)c1ccc2c(c1)c(-c1cccc(Cl)c1)cc1cnnn12` (centres undefined) gave a melting point of 222 °C.

With `CCOc1cc(Cn2cc(CCC(=O)O)c(-c3ccccc3)c2)cc(OCc2nc(-c3ccccc3)oc2C)c1`, the melting point fell in the range of 126 to 127 °C.

The molecule `Cc1cccc2c(=O)nc(-c3ccccn3)sc12` gave a melting point of 198 °C.

`CC(Oc1ccc(-c2ccc(S(N)(=O)=O)cc2)cc1)C(O)CCc1cccnc1` (centres undefined) returned a melting point of 222 to 223 °C.

As to `CCCCCCC(C)(C)c1cc(O)c(C2=C(CCO)CCC(C)C2)c(O)c1` (centres undefined), the melting point lay within 83 to 86 °C.

As for `CCOC(=O)c1cn(C(C)(C)CO[Si](C)(C)C(C)(C)C)c2cc(Br)ccc2c1=O`, the melting point was determined as 133 °C.

On to `CCOC(=O)CCCCCCCn1c(-c2ccccc2)c(-c2ccccc2)[nH]c1=O`, for which the melting point lay within 78 to 79 °C.

On to `CCCc1c(OCCCOc2cccc(N)c2C#N)ccc(C(C)=O)c1O`, for which the melting point was in the range of 120 to 122 °C.

As to `Cc1ncn(-c2nc(C(=O)NCc3ccc(F)c(C)c3)c(O)c(=O)n2C)n1`, the melting point fell in the range of 204 to 205 °C.

Take `CN(C)c1ccc(C2OC(=O)c3cc(N(C)C)ccc32)c(Cl)c1` (centres undefined): the melting point was in the range of 159 to 160 °C.

With `CCN1CCN(c2nc(-c3ccc(O)cc3)cc3ccccc23)CC1`, the melting point was in the range of 204 to 206 °C.

`CN1C(=O)[C@@H](NC(=O)OC(C)(C)C)CCc2ccccc21` came in with a melting point of 132 to 134 °C.

The term melting point denotes the temperature, or range, at which the solid turns liquid.

The record behind these values is a melting point compilation (Tetko et al.; mined from patent text by program, amines drawn as free bases though some values may be those of a salt).
